Like-named read-outs stand apart in the source and are kept apart here.
Columns and labels:
[1] = system: stage III/IV advanced epithelial ovarian cancer resistant or refractory to platinum- and taxane-based regimens; settings: for CA-125 marker level, low: after reduction; for CA-125 marker level, high: before reduction
Experimental: Such Phase III clinical trial is sometimes referred to herein as the “Karenitecin Phase III Trial”.
The Primary Endpoint of the disclosed Karenitecin Phase III Trial was Progression Free Survival (“PFS”); which was defined as the time period from the date of randomization to the date of first radiographically-documented Progressive Disease (“PD”) or date of death due to any cause, taking the event date that occurs first. The date of PD was determined by radiographical objective disease (RECIST) measurement. The Secondary Endpoints of the disclosed Karenitecin Phase III Trial included: (i) Overall Survival (hereinafter “OS”), defined as the time from the date of randomization to the date of death due to any cause; (ii) Incidence of anemia, defined as the proportion of subjects who experience ≧grade 3 anemia based on National Cancer Institute Common Terminology Criteria for Adverse Events (NCI-CTCAE) criteria at any time post-baseline after receiving study treatment; (iii) Incidence of neutropenia (including febrile neutropenia), defined as the proportion of subjects who experience ≧grade 3 neutropenia based on NCI-CTCAE criteria at any time post-baseline after receiving study treatment; and (iv) Incidence of thrombocytopenia, defined as the proportion of subjects who experience ≧grade 3 thrombocytopenia based on NCI-CTCAE criteria at any time post-baseline after receiving study treatment.
Approximately 80 study centers participated in this clinical study. The primary endpoint was Progression Free Survival (PFS); defined as the time period from the date of randomization to the date of first radiographically documented progressive disease or disease progression (“PD”) or date of death due to any cause, taking the event date that occurs first.
The primary endpoint was Progression Free Survival (PFS); defined as the time period from the date of randomization to the date of first radiographically documented progressive disease (PD) or date of death due to any cause, taking the event date that occurs first. The date of PD was determined by radiographically objective disease (RECIST) measurement.
• Overall Survival (OS), defined as the time from the date of randomization to the date of death due to any cause. • Incidence of anemia, defined as the proportion of subjects who experience ≧grade 3 anemia based on National Cancer Institute Common Terminology Criteria for Adverse Events (NCI-CTCAE) criteria at any time post-baseline after receiving study treatment. • Incidence of neutropenia (including febrile neutropenia), defined as the proportion of subjects who experience ≧grade 3 neutropenia based on NCI-CTCAE criteria at any time post-baseline after receiving study treatment. • Incidence of thrombocytopenia, defined as the proportion of subjects who experience ≧grade 3 thrombocytopenia based on NCI-CTCAE criteria at any time post-baseline after receiving study treatment.
During this period, subjects received either Karenitecin (1.0 mg/m^2/day administered as a 60-minute intravenous infusion) or Topotecan (1.5 mg/m^2/day administered as a 30-minute intravenous infusion) daily for 5 consecutive days, every 21 days (one treatment cycle=21 days).

[2] = system: panel of over twenty (20) human cancer cell lines; test: In vitro studies on a panel of over twenty human cancer cell lines; type: cell-based
[3] = Adenocarcinoma (grade ≧2) not otherwise specified, P-value=0.3700
[4] = ECOG Performance Status 0, P-value=0.0249
[5] = ECOG Performance Status 2, P-value=0.7481
[6] = FIGO Stage IIIB, P-value=0.6225
[7] = FIGO Stage IV, first 254 PFS events, P-value=0.0260
[8] = Histological Stage: G1-well differentiated, P-value=0.8561
[9] = Histological Stage: G2-moderately differentiated, P-value=0.2982
[10] = Histopathology class: serous adenocarcinoma, P-value=0.2829
[11] = Mucinous adenocarcinoma subtype
[12] = Ovary as primary site of disease, P-value=0.2606
[13] = overall trial population, P-value=0.261

Question: What does the source list for `CC[C@@]1(O)C(=O)OCc2c1cc1n(c2=O)Cc2c-1nc1ccccc1c2CC[Si](C)(C)C` [Karenitecin, (4S)-4-ethyl-4-hydroxy-11-[2-(trimethylsilyl)ethyl]-1H-pyrano[3′:4′:6,7]indolizino[1,2-b]quinoline-3,14(4H,12H)-dione]?
Answer: Overall survival hazard ratio ([1]; Adenocarcinoma (grade ≧2) not otherwise specified, P-value 0.7893): 0.898; Median PFS advantage in favor of Karenitecin [1, 3]: 2.7 month; PFS Hazard Ratio [1, 3]: 0.684; PFS Hazard Ratio ([1]; Best response SD after 6 cycles in a first-line setting, P-value=0.9908): 0.992; Median PFS advantage in favor of Karenitecin ([1]; Best response stable disease (SD) after 6 cycles in a first-line setting, P-value=0.9908): 3 month; Median PFS advantage in favor of Karenitecin [1, 4]: 3.9 month; PFS Hazard Ratio [1, 4]: 0.662; Median PFS advantage in favor of Karenitecin [1, 5]: 1.5 month; PFS Hazard Ratio [1, 5]: 0.896; Median PFS advantage in favor of Karenitecin [1, 6]: 4.2 month; PFS Hazard Ratio [1, 6]: 0.722; Overall survival hazard ratio ([1]; FIGO Stage IV, P-value 0.4516): 0.892; Median PFS advantage in favor of Karenitecin ([1]; FIGO Stage IV, P-value=0.0556): 2.7 month; PFS Hazard Ratio ([1]; FIGO Stage IV, P-value=0.0556): 0.741; Median PFS advantage in favor of Karenitecin [1, 7]: 2.8 month; PFS Hazard Ratio [1, 7]: 0.669; Overall survival hazard ratio ([1]; Histological Stage: G1-well differentiated, P-value 0.9612): 0.9674; Median PFS advantage in favor of Karenitecin [1, 8]: 1.7 week; PFS Hazard Ratio [1, 8]: 0.904; Median PFS advantage in favor of Karenitecin [1, 9]: 2.5 month; PFS Hazard Ratio [1, 9]: 0.835; Overall survival hazard ratio ([1]; Histopathology Class: Undifferentiated carcinoma, P-value 0.6426): 0.701; Median PFS advantage in favor of Karenitecin (as compared with Topotecan) ([1]; Histopathology class: Mucinous adenocarcinoma): 2 month; Median PFS advantage in favor of Karenitecin [1, 10]: 1.6 month; PFS Hazard Ratio [1, 10]: 0.873; Median PFS [1, 11]: approximately 17.8 weeks; Overall survival (OS), third quartile [1, 11]: 35 months; Overall survival hazard ratio (Karenitecin vs Topotecan) ([1]; Mucinous adenocarcinoma subtype, P-value 0.7321): 0.841; Median PFS advantage in favor of Karenitecin [1, 12]: 6.5 week; PFS Hazard Ratio [1, 12]: 0.885; CA-125 marker level, low ([1]; another patient): 24 U/ML; CA-125 marker level, high ([1]; another patient): 237 U/ML; Reduction of grade 4 neutropenia in comparison to the Topotecan arm ([1]; female, human, in vivo): 38.2%; Reduction of number of grade 3 or 4 anemia events in comparison to the Topotecan arm ([1]; female, human, in vivo): 27.3%; Reduction of number of grade 3 or 4 thrombocytopenia events in comparison to the Topotecan arm ([1]; female, human, in vivo): 37.4%; Safety concerns noted by the independent DSMB ([1]; in vivo): no safety concerns; CA-125 marker level, high ([1]; one patient): 2072 U/ML; Median PFS ([1]; overall trial population, IRC-determined): approximately 24.3 weeks; Median PFS advantage in favor of Karenitecin (as compared with Topotecan) [1, 13]: greater than 6 week; PFS Hazard Ratio (Karenitecin vs Topotecan) [1, 13]: 0.885; Median PFS ([1]; refractory or resistant and/or mucinous subpopulation): approximately 26.9 weeks; PFS Hazard Ratio (Karenitecin vs Topotecan) ([1]; refractory or resistant and/or mucinous subpopulation, first 254 subjects, P-value=0.0849): 0.770; Median PFS in favor of Karenitecin (as compared with Topotecan) ([1]; refractory or resistant to platinum/taxane and/or mucinous sub-type subpopulation, first 254 subjects, P-value=0.0849): approximately 8.2 weeks; PFS Hazard Ratio ([1]; resistant subject sub-population, P-value=0.144): 0.822; CA-125 marker level, low ([1]; same patient): 167 U/ML; Antitumor potency compared with Topotecan or SN-38 [2]: significantly more potent

Reference: patent US20160038519A1, “ADMINISTRATION OF KARENITECIN FOR THE TREATMENT OF ADVANCED OVARIAN CANCER, INCLUDING CHEMOTHERAPY-RESISTANT AND/OR THE MUCINOUS ADENOCARCINOMA SUB-TYPES” (BioNumerik Pharmaceuticals, Inc., priority 2014, published 2016)
